Measured values as given in US20070141203A1, “Beverages containing water-soluble vitamin E” (priority 2003, published 2007).

Columns and labels:
[1] = Turbidity of aqueous dispersions and solutions of vitamin E-containing components in demineralized water (Hach turbidimeter Model Ratio/XR); assay type: physicochemical; settings: 150 +/- 5 ppm in demineralized water; for Turbidity (Initially doped water): initial; for Turbidity (6 wks after doping): six weeks at ambient temperature
Description: Preparation of aqueous dispersions and solutions of vitamin E-containing components.
(§1) Sample 1: Vitamin E oil (0.15 g) was added to 1000 g of demineralized water. The mixture was homogenized for approximately 60 minutes using a Gifford-Wood homogenizer, Model 1 L form Greerco Corporation. The sample was very cloudy. The turbidity of the sample was measured using a Hach turbidimeter Model Ratio/XR. The turbidity of the demineralized water was also measured prior to addition of the vitamin E. The sample was stored at ambient temperature for six weeks. […] The sample was shaken well and the turbidity measured.
(§2) Sample 2: Vitamin E acetate oil (0.25 g) from Sigma-Aldrich was added to 1681 g of demineralized water. […] The turbidity of the dispersion was measured and then again after storage for six weeks at ambient temperature.
(§3) Sample 3: Vitamin E succinate powder (0.27 g) from Sigma-Aldrich was added to 1792 g of demineralized water. The mixture was homogenized for approximately 60 minutes. […] The turbidity of the dispersion was measured and then again after storage for six weeks at ambient temperature.
(§4) This solution was stirred at ambient temperature using a magnetic stirrer for several minutes. […] The turbidity of the solution was measured and then measured again after storage at ambient temperature for six weeks.
(§5) Sample 6: To 1790 g of demineralized water was added 0.27 g of a mixture consisting of d,l-α-tocopheryl acetate, modified food starch, and silica. This product is commercially available from Roche Vitamins, Inc., under the name “Dry Vitamin E 15% CC”. The aqueous mixture was agitated for about thirty minutes using a magnetic stirrer. […] The turbidity of the solution was measured and then re-measured after storage for six weeks at ambient temperature.
(§6) Sample 7: To 1802 g of demineralized water was added 0.27 g of a mixture consisting of d-α-tocopheryl acetate, Polysorbate 60, and ethyl alcohol. This product is commercially available from ADM under the name “E 230 Clear®”. The mixture was agitated for about ten minutes using a magnetic stirrer. […] The turbidity of the solution was measured and then re-measured after storage for six weeks at ambient temperature.

[2] = Visual appearance / dissolution of vitamin E-containing components in demineralized water, on preparation and during storage; assay type: physicochemical; settings: about 150 ppm in demineralized water; for Appearance / dissolution on preparation: after homogenizing or stirring; for Appearance during / after storage: six weeks at ambient temperature
Description: as §1, §2, §3, §4, §5, §6

Turbidity (Initially doped water) [1] [NTU]	Turbidity (6 wks after doping) [1] [NTU]	Compound	Appearance / dissolution on preparation [2]	Appearance during / after storage [2]
55	68	Cc1c(C)c2c(c(C)c1O)CC[C@@](C)(CCC[C@H](C)CCC[C@H](C)CCCC(C)C)O2 [Sample 1, d-α-Tocopherol]	very cloudy	an immiscible layer of oil formed on top of the water
52	61	CC(=O)Oc1c(C)c(C)c2c(c1C)CC[C@@](C)(CCC[C@H](C)CCC[C@H](C)CCCC(C)C)O2 [Sample 2, d-α-Tocopherol acetate]	some immiscible oil droplets remained on the surface of the water	Immiscible oil droplets were still on the surface of the water
8	22	Cc1c(C)c2c(c(C)c1OC(=O)CCC(=O)O)CCC(C)(CCCC(C)CCCC(C)CCCC(C)C)O2 (stereo not drawn) [Sample 3, d,l-α-Tocopherol succinate]	A small amount of powder continued to float on the surface of the water	A small amount of powder continued to reside on the surface of the water
